The record followed here is patent US10912771B1, “Methods for the administration of certain VMAT2 inhibitors” (Neurocrine Biosciences, Inc., priority 2017, dated 2021).

Broadly, the AUC(0-inf) is total exposure, with the tail of the curve extrapolated. The term Cmax denotes the highest concentration seen after dosing. The MRT is the average time that molecules of a dose stay in the body.

Entries after “also recorded” stand apart in the source; their conditions may differ. Like-named read-outs stand apart in the source and are kept apart here.

For one data set, the target named is T1, human VMAT1 transporter (Homo sapiens, UniProt P54219).
T1 construct: expressed in transfected cells
T1 sequence (P54219 1-525): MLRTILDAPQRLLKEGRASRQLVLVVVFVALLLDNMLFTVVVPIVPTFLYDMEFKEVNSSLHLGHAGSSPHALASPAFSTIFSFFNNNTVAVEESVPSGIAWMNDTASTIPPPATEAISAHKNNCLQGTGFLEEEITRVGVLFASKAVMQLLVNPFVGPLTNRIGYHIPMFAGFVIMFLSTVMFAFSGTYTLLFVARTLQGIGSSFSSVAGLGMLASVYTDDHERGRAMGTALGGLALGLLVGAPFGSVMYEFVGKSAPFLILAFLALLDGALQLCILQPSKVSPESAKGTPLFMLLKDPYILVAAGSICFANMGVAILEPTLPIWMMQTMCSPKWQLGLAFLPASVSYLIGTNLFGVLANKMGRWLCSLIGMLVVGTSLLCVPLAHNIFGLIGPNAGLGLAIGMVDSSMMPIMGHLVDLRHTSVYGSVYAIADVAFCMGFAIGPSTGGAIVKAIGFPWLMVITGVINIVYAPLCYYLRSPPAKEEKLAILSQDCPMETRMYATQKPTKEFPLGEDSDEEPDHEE
The data set can be described thus: Uptake in cells expressing VMAT1. The settings on record: TBZ, VBZ and metabolites at concentrations up to 10 μM. In kind it is cell-based.

Data set [1] concerns more than 80 targets (GPCRs, cell-surface monoamine transporters, ion channels including HERG). Description: Cerep multi-target activity screen. Conditions: receptors, monoamine transporters, and ion channels.
Data set [2] can be described thus: Phase 1 open-label one-sequence crossover drug-interaction study: plasma pharmacokinetics of NBI-98854 and metabolites with and without rifampin. In kind it is in vivo, human. The settings on record: for half-life: read-out: Mean t1/2 (converted); for AUC(0-inf) / Cmax / MRT / AUC(0-t) / Tlag / t1/2: Mean (SD); for AUC(0-t): plasma. On the procedure: (§1) Subjects received a single dose of 80 mg valbenazine tosylate on Days 1 and 11 between 0800 and 1000 hours. In addition, subjects received 600 mg rifampin (300 mg×2 capsules) once daily on Days 5 (after collection of the 96-hour PK sample) through 14 between 0830 and 1030 hours. Subjects were required to fast overnight before receiving the study drugs (valbenazine tosylate and rifampin). Subjects were discharged from the study center on Day 15 (final study day or upon early termination) after all safety evaluations and study assessments had been completed.
Safety was assessed throughout the study.
NBI-98854 40 mg capsules were administered orally. The dose of NBI-98854 was based on ditosylate salt (dose expressed as free base). Subjects received a single dose of NBI-98854 80 mg (as two 40 mg capsules) twice during the study, on Days 1 and 11.
Rifampin 300 mg capsules were administered orally. Subjects received a single dose of rifampin 600 mg (as two 300 mg capsules) on Days 5 (after collection of the 96 hour NBI-98854 PK sample) through 14 between 0830 and 1030 hours.
The following plasma PK parameters were calculated only for NBI-98854: • Apparent systemic clearance after oral administration (CL/F) • Apparent volume of distribution during the terminal phase after oral administration (Vz/F)
The last significant figure was rounded up if the digit to the right of it was >5, and was rounded down if the digit to the right of it was […].
The last significant figure was rounded up if the digit to the right of it was ≥5, and was rounded down if the digit to the right of it was ≤4.
(§2) An analysis of variance (ANOVA) model was used to compare AUC0-∞ and Cmax for NBI-98854 administered with rifampin (“test”) versus AUC0-∞ and Cmax for NBI-98854 alone (“reference”). The PK parameters for metabolites of NBI-98854 and rifampin were also evaluated. Safety data were summarized using descriptive statistics.

The target in the next data set is T2, VMAT2 (Homo sapiens, UniProt Q05940).
T2 construct: from tissue; host or cells: human platelets (homogenates)
T2 sequence (Q05940 whole entry): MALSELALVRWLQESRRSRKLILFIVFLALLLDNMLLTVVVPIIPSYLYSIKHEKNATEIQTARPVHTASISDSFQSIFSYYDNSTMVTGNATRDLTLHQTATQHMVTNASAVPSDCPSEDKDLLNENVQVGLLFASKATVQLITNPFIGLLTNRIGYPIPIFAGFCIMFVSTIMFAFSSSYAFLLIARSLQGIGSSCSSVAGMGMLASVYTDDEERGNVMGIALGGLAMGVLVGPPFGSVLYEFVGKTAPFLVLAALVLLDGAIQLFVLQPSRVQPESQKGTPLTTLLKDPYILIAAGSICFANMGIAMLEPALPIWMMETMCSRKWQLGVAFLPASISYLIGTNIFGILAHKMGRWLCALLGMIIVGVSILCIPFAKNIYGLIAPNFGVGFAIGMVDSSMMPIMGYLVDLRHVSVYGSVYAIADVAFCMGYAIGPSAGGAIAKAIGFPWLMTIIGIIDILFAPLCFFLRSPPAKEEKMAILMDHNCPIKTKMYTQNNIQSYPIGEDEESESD
Description: Inhibition of [3H]-DHTBZ binding to human platelets.

A short description of data set [3]: Phase 1 drug-interaction study: safety, treatment-emergent adverse events. The data set is classed as in vivo, human. Conditions: Safety Analysis Set, healthy subjects, by treatment period. On the procedure: as §1, §2
Another data set deals with T3, Serotonin 5-HT1A (Homo sapiens, UniProt P08908).
T3 sequence (P08908 1-422): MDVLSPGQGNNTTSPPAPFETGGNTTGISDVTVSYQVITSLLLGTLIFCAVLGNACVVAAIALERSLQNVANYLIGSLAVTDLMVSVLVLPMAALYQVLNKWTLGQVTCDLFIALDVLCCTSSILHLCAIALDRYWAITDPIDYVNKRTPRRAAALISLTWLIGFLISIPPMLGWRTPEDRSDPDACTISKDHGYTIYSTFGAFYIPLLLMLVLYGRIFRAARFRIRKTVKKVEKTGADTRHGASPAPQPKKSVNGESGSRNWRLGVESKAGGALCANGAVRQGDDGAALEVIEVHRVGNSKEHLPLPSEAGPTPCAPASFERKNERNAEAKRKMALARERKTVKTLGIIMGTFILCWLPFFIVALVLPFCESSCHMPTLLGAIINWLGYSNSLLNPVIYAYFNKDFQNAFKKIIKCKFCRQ
The data set can be described thus: Cerep screen, Serotonin 5-HT1A. Conditions: 1 or 10 μM final concentration; n=2.

A further data set concerns the target Serotonin 5-HT7 (Homo sapiens, UniProt P34969). Description: Cerep screen, Serotonin 5-HT7. Conditions: 1 or 10 μM final concentration; n=2.
Data set [4] is described as follows: Ptosis, in vivo surrogate measure of pharmacological effect.
Setting [5] is: both sexes, human, oral, plasma metabolite NBI-136110, NBI-98854 80 mg + rifampin 600 mg, N = 11.
Where [6] appears, read: both sexes, human, oral, plasma metabolite NBI-136110, NBI-98854 80 mg alone, N = 11.
[7] abbreviates: plasma metabolite NBI-136110, NBI-98854 80 mg + rifampin 600 mg, N = 11.
[8] abbreviates: plasma metabolite NBI-136110, NBI-98854 80 mg alone, N = 11.

Chain of Serotonin 5-HT7 (P34969 whole entry): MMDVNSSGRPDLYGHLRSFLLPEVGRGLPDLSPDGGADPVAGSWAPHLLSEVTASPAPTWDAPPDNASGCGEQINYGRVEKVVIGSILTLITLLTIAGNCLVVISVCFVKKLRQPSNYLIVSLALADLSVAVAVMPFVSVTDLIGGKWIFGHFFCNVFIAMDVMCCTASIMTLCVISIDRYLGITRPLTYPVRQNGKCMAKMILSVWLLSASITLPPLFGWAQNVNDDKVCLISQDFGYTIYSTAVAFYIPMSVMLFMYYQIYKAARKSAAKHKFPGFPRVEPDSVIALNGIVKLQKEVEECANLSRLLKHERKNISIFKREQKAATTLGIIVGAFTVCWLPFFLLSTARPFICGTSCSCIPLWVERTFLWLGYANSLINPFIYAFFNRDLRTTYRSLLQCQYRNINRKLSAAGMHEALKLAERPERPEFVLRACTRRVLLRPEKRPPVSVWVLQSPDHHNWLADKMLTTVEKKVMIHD

Take `COc1cc2c(cc1OC)[C@H]1C[C@@H](OC(=O)[C@@H](N)C(C)(C)O)[C@H](CC(C)C)CN1CC2` [NBI-136110]: at human VMAT1 transporter, the “inhibition of uptake through VMAT1” value is listed as “no significant inhibitory activity; also recorded: no significant effect”. Moreover, the “affinity for more than 80 binding sites” value in data set [1] is on record as “little to no affinity”. Moreover, the half-life in data set [2] (both sexes, human, oral, 80 mg, plasma analyte, NBI-98854 alone) was 27 h; in data set [2] (both sexes, human, oral, plasma analyte, NBI-98854 administered with rifampin), 12 h. Besides, the Tmax in data set [2] (both sexes, human, oral, 80 mg, plasma analyte, NBI-98854 alone, read-out: Median tmax) is 3 h; in data set [2] (both sexes, human, oral, plasma analyte, NBI-98854 in combination with rifampin vs NBI-98854 alone, read-out: Median tmax shorter), 1.5 h; in data set [2] (plasma metabolite NBI-136110, NBI-98854 80 mg + rifampin 600 mg, N = 11, Median (min, max)) it was 1.5 (0.75, 2.1) hr; in data set [2] (plasma metabolite NBI-136110, NBI-98854 80 mg alone, N = 11, Median (min, max)) it was 3.0 (2.0, 8.0) hr. Besides, the AUC(0-inf) in data set [2] (setting [5]) was determined as 663 ng·h/mL; in data set [2] (setting [6]), 2080 ng·h/mL. Besides, the Cmax in data set [2] (setting [5]) was determined as 81.5 ng/mL; in data set [2] (setting [6]) it was 59.8 ng/mL. Further, the MRT in data set [2] (setting [5]) turned out to be 12 h; in data set [2] (setting [6]) it was 39 h. Also, the AUC(0-t) in data set [2] (both sexes, human, oral, 80 mg, plasma metabolite NBI-136110, NBI-98854 80 mg alone, N = 11, read-out: AUC0-24) was determined as 963 ng·h/mL; in data set [2] (both sexes, human, oral, 80 mg, plasma metabolite NBI-136110, NBI-98854 80 mg alone, N = 11, read-out: AUC0-tlast), 1890 ng·h/mL; in data set [2] (both sexes, human, oral, plasma metabolite NBI-136110, NBI-98854 80 mg + rifampin 600 mg, N = 11, read-out: AUC0-24) it was 554 ng·h/mL; in data set [2] (both sexes, human, oral, plasma metabolite NBI-136110, NBI-98854 80 mg + rifampin 600 mg, N = 11, read-out: AUC0-tlast), 658 ng·h/mL. For the same compound, the “Mean t1/2 shorter” value in data set [2] (plasma analyte, NBI-98854 in combination with rifampin vs NBI-98854 alone) is recorded as “approximately 40%”. Moreover, in data set [2] (plasma analyte, NBI-98854 plus rifampin compared with NBI-98854 alone), the “decrease in AUC0-∞” value is listed as “approximately 70%”. Besides, the Tlag in data set [2] (setting [7]) is recorded as 0.16 (0.13) hr; in data set [2] (setting [8]) it was 0.23 (0.14) hr. Moreover, the t1/2 in data set [2] (setting [7]) is 12 (3.0) hr; in data set [2] (setting [8]) it was 27 (6.7) hr. Further, at VMAT2, the “Affinity Relative to R,R,R-DHTBZ” value came to 67. Further, on VMAT2 (n=4), the “pKi mean (SEM)” value is on record as 6.65 (0.04).
For `CO[C@H]1/C=C/O[C@@]2(C)Oc3c(C)c(O)c4c(O)c(c(/C=N/N5CCN(C)CC5)c(O)c4c3C2=O)NC(=O)/C(C)=C\C=C\[C@H](C)[C@H](O)[C@@H](C)[C@@H](O)[C@@H](C)[C@H](OC(C)=O)[C@@H]1C` [Rifampin, reference compound], in data set [3], the “Subjects who experienced a TEAE: Overall” value is given as 12 (100) n (%), the “TEAE: Abdominal pain” value is 0 n (%), the “TEAE: Abdominal pain upper” value is 1 (8.3) n (%) and the “TEAE: Arthropod bite” value was 0 n (%). In addition, in data set [3], the “TEAE: Chromaturia” value is 12 (100) n (%), the “TEAE: Headache” value is listed as 0 n (%), the “TEAE: Hypoaesthesia” value is recorded as 0 n (%) and the “TEAE: Non-cardiac chest pain” value is recorded as 1 (8.3) n (%). For the same compound, in data set [3], the “TEAE: Paraesthesia” value is on record as 1 (8.3) n (%) and the “TEAE: Vessel puncture site haemorrhage” value is reported as 0 n (%). Moreover, in data set [3] (listed as rifampin), the “TEAE: Chromaturia” value was 12 n (%).
Regarding `COc1cc2c(cc1OC)[C@H]1C[C@H](O)[C@H](CC(C)C)CN1CC2` [S,R,R-DHTBZ, reference compound], at Serotonin 5-HT1A, the “percent of control specific binding, Serotonin 5-HT1A” value was 69%. The “percent of control specific binding, Serotonin 5-HT7” value on Serotonin 5-HT7 is 80%.
With `COc1cc2c(cc1OC)C1CC(=O)C(CC(C)C)CN1CC2` (stereo not drawn) [TBZ, reference compound], on human VMAT1 transporter, the “inhibition of uptake through VMAT1” value is reported as “no significant inhibitory activity; also recorded: no significant effect”. Also, in data set [4], the induction of ptosis entry is listed as “induced ptosis in an equivalent manner”.
Turning to `COC(=O)[C@H]1[C@H]2C[C@@H]3c4[nH]c5cc(OC)ccc5c4CCN3C[C@H]2C[C@@H](OC(=O)c2cc(OC)c(OC)c(OC)c2)[C@@H]1OC` [reserpine, reference compound], the “inhibition of uptake through VMAT1” value at human VMAT1 transporter was “substantially inhibited uptake”.
